Patent publication US9012412B2, “Dual SGLT1/SGLT2 inhibitors” (Janssen Pharmaceutica NV, priority 2013, dated 2015)

Experiments:
[1] = molecular target: T1, human SGLT2 (Homo sapiens, UniProt P31639); test: Sodium-dependent 14C-methyl-α-D-glucopyranoside uptake in CHO-K1 cells stably expressing human SGLT2; assay type: cell-based; conditions: for IC50: 14C-methyl-α-D-glucopyranoside uptake; for inhibition at 0.3 µM: compound at 0.3 μM; for inhibition at 0.1 µM: compound at 0.1 μM
T1 construct: expressed in transfected cells
T1 sequence (P31639 1-672): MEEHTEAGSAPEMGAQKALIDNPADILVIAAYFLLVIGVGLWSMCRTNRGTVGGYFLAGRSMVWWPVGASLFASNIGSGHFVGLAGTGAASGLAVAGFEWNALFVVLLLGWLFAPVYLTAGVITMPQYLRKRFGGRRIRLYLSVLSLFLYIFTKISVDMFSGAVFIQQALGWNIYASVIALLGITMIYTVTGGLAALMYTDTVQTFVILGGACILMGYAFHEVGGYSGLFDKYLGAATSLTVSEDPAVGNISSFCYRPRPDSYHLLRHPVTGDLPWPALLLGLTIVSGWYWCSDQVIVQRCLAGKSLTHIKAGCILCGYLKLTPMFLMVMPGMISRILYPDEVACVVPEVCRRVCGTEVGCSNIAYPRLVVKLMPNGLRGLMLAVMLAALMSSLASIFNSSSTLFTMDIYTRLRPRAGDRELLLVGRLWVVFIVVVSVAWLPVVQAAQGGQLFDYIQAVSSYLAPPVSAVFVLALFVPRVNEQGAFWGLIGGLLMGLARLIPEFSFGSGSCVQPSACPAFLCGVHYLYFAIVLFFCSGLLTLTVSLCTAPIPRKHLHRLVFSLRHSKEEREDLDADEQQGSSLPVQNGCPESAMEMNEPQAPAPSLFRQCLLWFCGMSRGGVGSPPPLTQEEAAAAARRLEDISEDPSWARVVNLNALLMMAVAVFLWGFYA
Method: (§1) SGLT1 and SGLT2 were cloned in form of cDNA from human small intestine (Genbank M24847), and from human kidney (Genbank M95549), respectively. Subsequently, each full cDNA was subcloned into pcDNA with each construct's integrity verified through follow-on sequencing. To generate CHO-K1 cells that stably express human SGLT1 or human SGLT2 CHO-K1 cells were transfected using DMRIE-C reagent (Life Technologies, Gaithersburg, Md.). Transfected cells were then selected in the presence of 500 μg/ml of the antibiotic G418 (Gibco-BRL, Grand Island, N.Y.). Individual clones were then characterized using the following cell-based assay for sodium-dependent glucose transport.
(§2) First, cell lines stably expressing human SGLT1 or SGLT2 were seeded at a density of 65,000 cells per well per 200 μl cell culture medium with 10 mM of NaButyrate (Aldrich Catalog No. 30341-0) in a 96-well flat bottom plate (COSTAR, Catalog No. 3903). For human SGLT1 or SGLT2 expressing CHO-K1 cells the culture medium comprised Ham's F-12 (Invitrogen Catalog No. 31765), Fetal Bovine Serum (Invitrogen Catalog No. 16000), G418 (Geneticin, Cellgro Catalog No. 30234-CI), Phlorizidin (Sigma Catalog No. P3449), DPBS (Cellgro Catalog No. 21030-CV), ^14C-methyl-α-D-glucopyranoside (Amersham Catalog No. CFB 76), and Methyl-α-D-glucopyranoside (Sigma Catalog No. M-9376).
(§3) The cells were allowed to incubate for 24 hours. Subsequently, the medium was aspirated from the plates and the cells were washed one time with 150 μl assay buffer and incubate 15 min with another 150 μl assay buffer which comprised 50 mM HEPES pH 7.4, 20 mM Tris Base, 5 mM KCl, 1 mM MgCl2, 1 mM CaCl2, and 137 mM NaCl. After removing the wash buffer, 40 μl assay buffer and 10 μl compound solution was added to each well, which was again allowed to incubate for 10 min.
(§4) Following the 10 min incubation, 10 μl of serial diluted Methyl-α-D-glucopyranoside (Sigma Catalog No. M-9376) containing 0.07 μCi ^14C-methyl-α-D-glucopyranoside (Amersham Catalog No. CFB 76) was added to the appropriate well and allowed to incubate for another 2 hours. ^14C-methyl-α-D-glucopyranoside (Sigma Catalog No. M-9376, St. Louis, Mo.) is a non-metabolizable glucose analog specific for sodium-dependent glucose transporters as previously described by H. Peng and J. E. Lever in “Post-transcriptional regulation of Na+/glucose cotransporter (SGLT1) gene expression in LLC-PK1 cells,” J. Biol. Chem. 270, 20536-42 (1995).
(§5) Next, the plates were twice washed with 150 μl of ice-cold DPBS (Cellgro Catalog No. 21030) that was then completely removed from the plates before adding 50 μl of MicroScint™-20 (Packard Catalog No. 6013621) to each well for a 20 min or longer incubation time.
(§6) Sodium-dependent ^14C-methyl-α-D-glucopyranoside uptake was quantified by measuring radioactivity. Plates were counted in a TopCount (Packard, Meriden, Conn.). Results are reported as the %-inhibition or IC50 value from a representative experiment. Variability for the functional assay was typically within 20%.

[2] = molecular target: T2, human SGLT1 (Homo sapiens, UniProt P13866); test: Sodium-dependent 14C-methyl-α-D-glucopyranoside uptake in CHO-K1 cells stably expressing human SGLT1; assay type: cell-based; conditions: for IC50: 14C-methyl-α-D-glucopyranoside uptake; for inhibition at 3 µM: compound at 3 μM; for inhibition at 0.1 µM: compound at 0.1 μM
T2 construct: expressed in transfected cells
T2 sequence (P13866 1-664): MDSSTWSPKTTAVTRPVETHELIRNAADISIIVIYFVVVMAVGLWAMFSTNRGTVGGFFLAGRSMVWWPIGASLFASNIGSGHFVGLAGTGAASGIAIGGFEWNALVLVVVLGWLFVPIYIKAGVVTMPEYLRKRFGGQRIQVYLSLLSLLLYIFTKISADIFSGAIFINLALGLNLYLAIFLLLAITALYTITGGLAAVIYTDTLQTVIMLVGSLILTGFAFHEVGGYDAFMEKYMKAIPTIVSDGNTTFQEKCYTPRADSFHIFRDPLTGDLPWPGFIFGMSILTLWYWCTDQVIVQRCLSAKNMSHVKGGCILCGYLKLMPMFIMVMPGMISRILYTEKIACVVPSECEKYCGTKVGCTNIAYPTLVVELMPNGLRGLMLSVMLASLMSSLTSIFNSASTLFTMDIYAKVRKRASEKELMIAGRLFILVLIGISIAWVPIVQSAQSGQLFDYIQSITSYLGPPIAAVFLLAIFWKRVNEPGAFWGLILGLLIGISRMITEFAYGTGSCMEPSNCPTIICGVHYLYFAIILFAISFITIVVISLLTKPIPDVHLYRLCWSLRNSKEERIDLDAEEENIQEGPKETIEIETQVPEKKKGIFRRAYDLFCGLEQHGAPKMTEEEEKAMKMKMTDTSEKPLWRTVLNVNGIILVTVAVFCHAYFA
Method: as §1, §2, §3, §4, §5, §6

SMILES	inhibition at 0.1 µM [1] [%]	inhibition at 0.1 µM [2] [%]	further results
OC[C@@H]1C[C@H](O)[C@@H](O)[C@H](c2cc(Cc3cc4ccccc4s3)c(C3CC3)cc2O)O1 [Cpd 12, (2S,3R,4S,6S)-2-(5-(benzo[b]thiophen-2-ylmethyl)-4-cyclopropyl-2-hydroxyphenyl)-6-(hydroxymethyl)tetrahydro-2H-pyran-3,4-diol]	–	–	IC50 [1]: 0.683 µM; IC50 [2]: 0.099 µM
N#Cc1cc(O)c([C@@H]2O[C@H](CO)C[C@H](O)[C@H]2O)cc1Cc1cc2ccccc2s1 [Cpd 13, 2-(benzo[b]thiophen-2-ylmethyl)-4-((2S,3R,4S,6S)-3,4-dihydroxy-6-(hydroxymethyl)tetrahydro-2H-pyran-2-yl)-5-hydroxybenzonitrile]	–	–	inhibition at 0.3 µM [1]: 73%; inhibition at 3 µM [2]: 57%
COc1cc(O)c([C@@H]2O[C@H](CO)C[C@H](O)[C@H]2O)cc1C(C)(C)c1cc2ccccc2s1 [Cpd 14, (2S,3R,4S,6S)-2-(5-(2-(benzo[b]thiophen-2-yl)propan-2-yl)-2-hydroxy-4-methoxyphenyl)-6-(hydroxymethyl)tetrahydro-2H-pyran-3,4-diol]	–	–	inhibition at 0.3 µM [1]: 54%; inhibition at 0.3 µM ([2]; compound at 0.3 μM): 46%
Cc1cc(O)c([C@@H]2O[C@H](CO)C[C@H](O)[C@H]2O)cc1C(C)(C)c1cc2ccccc2s1 [Cpd 15, (2S,3R,4S,6S)-2-(5-(2-(benzo[b]thiophen-2-yl)propan-2-yl)-2-hydroxy-4-methylphenyl)-6-(hydroxymethyl)tetrahydro-2H-pyran-3,4-diol]	–	–	inhibition at 0.3 µM [1]: 25%; inhibition at 3 µM [2]: 52%
OC[C@@H]1C[C@H](O)[C@@H](O)[C@H](c2cc(Cc3cc4ccccc4s3)c(C(F)(F)F)cc2O)O1 [Cpd 16, (2S,3R,4S,6S)-2-(5-(benzo[b]thiophen-2-ylmethyl)-2-hydroxy-4-(trifluoromethyl)phenyl)-6-(hydroxymethyl)tetrahydro-2H-pyran-3,4-diol]	77	–	IC50 [2]: 0.24 µM
C=Cc1cc(O)c([C@@H]2O[C@H](CO)C[C@H](O)[C@H]2O)cc1Cc1cc2ccccc2s1 [Cpd 17, (2S,3R,4S,6S)-2-(5-(benzo[b]thiophen-2-ylmethyl)-2-hydroxy-4-vinylphenyl)-6-(hydroxymethyl)tetrahydro-2H-pyran-3,4-diol]	64	58	–
O=C(c1cc2ccccc2s1)c1cc([C@@H]2O[C@H](CO)C[C@H](O)[C@H]2O)c(O)cc1O [Cpd 18, benzo[b]thiophen-2-yl(5-((2S,3R,4S,6S)-3,4-dihydroxy-6-(hydroxymethyl)tetrahydro-2H-pyran-2-yl)-2,4-dihydroxyphenyl)methanone]	–	–	inhibition at 0.3 µM [1]: 13%; inhibition at 3 µM [2]: 19%
Cc1cc(O)c([C@@H]2O[C@H](CO)C[C@H](O)[C@H]2O)cc1Cc1cc2cc(F)ccc2s1 [Cpd 19, (2S,3R,4S,6S)-2-(5-((5-fluorobenzo[b]thiophen-2-yl)methyl)-2-hydroxy-4-methylphenyl)-6-(hydroxymethyl)tetrahydro-2H-pyran-3,4-diol]	–	–	IC50 [1]: 0.041 µM; IC50 [2]: 0.22 µM
Cc1cc(O)c([C@@H]2O[C@H](CO)C[C@H](O)[C@H]2O)cc1Cc1cc2cc(Cl)ccc2s1 [Cpd 20, (2S,3R,4S,6S)-2-(5-((5-chlorobenzo[b]thiophen-2-yl)methyl)-2-hydroxy-4-methylphenyl)-6-(hydroxymethyl)tetrahydro-2H-pyran-3,4-diol]	84	20	–
COc1c(Cc2cc3ccccc3s2)cc([C@@H]2O[C@H](CO)C[C@H](O)[C@H]2O)c(O)c1F [Cpd 21, (2S,3R,4S,6S)-2-(5-(benzo[b]thiophen-2-ylmethyl)-3-fluoro-2-hydroxy-4-methoxyphenyl)-6-(hydroxymethyl)tetrahydro-2H-pyran-3,4-diol]	78	26	–
Cc1c(Cc2cc3ccccc3s2)cc([C@@H]2O[C@H](CO)C[C@H](O)[C@H]2O)c(O)c1C [Cpd 22, (2S,3R,4S,6S)-2-(5-(benzo[b]thiophen-2-ylmethyl)-2-hydroxy-3,4-dimethylphenyl)-6-(hydroxymethyl)tetrahydro-2H-pyran-3,4-diol]	67	39	–
COc1c([C@@H]2O[C@H](CO)C[C@H](O)[C@H]2O)cc(Cc2cc3ccccc3s2)c(C)c1C [Cpd 23, (2S,3R,4S,6S)-2-(5-(benzo[b]thiophen-2-ylmethyl)-2-methoxy-3,4-dimethylphenyl)-6-(hydroxymethyl)tetrahydro-2H-pyran-3,4-diol]	70	50	–
C=CCOc1c([C@@H]2O[C@H](CO)C[C@H](O)[C@H]2O)cc(Cc2cc3ccccc3s2)c(C)c1C [Cpd 24, (2S,3R,4S,6S)-2-(2-(allyloxy)-5-(benzo[b]thiophen-2-ylmethyl)-3,4-dimethylphenyl)-6-(hydroxymethyl)tetrahydro-2H-pyran-3,4-diol]	40	31	–
Cc1cc(Br)c([C@@H]2O[C@H](CO)C[C@H](O)[C@H]2O)cc1Cc1cc2ccccc2s1 [Cpd 25, (2S,3R,4S,6S)-2-(5-(benzo[b]thiophen-2-ylmethyl)-2-bromo-4-methylphenyl)-6-(hydroxymethyl)tetrahydro-2H-pyran-3,4-diol]	47	26	–
Cc1cc(-c2ccc[nH]2)c([C@@H]2O[C@H](CO)C[C@H](O)[C@H]2O)cc1Cc1cc2ccccc2s1 [Cpd 26, (2S,3R,4S,6S)-2-(5-(benzo[b]thiophen-2-ylmethyl)-4-methyl-2-(1H-pyrrol-2-yl)phenyl)-6-(hydroxymethyl)tetrahydro-2H-pyran-3,4-diol]	57	33	–
Cc1cc(-c2cc[nH]n2)c([C@@H]2O[C@H](CO)C[C@H](O)[C@H]2O)cc1Cc1cc2ccccc2s1 [Cpd 27, (2S,3R,4S,6S)-2-(5-(benzo[b]thiophen-2-ylmethyl)-4-methyl-2-(1H-pyrazol-3-yl)phenyl)-6-(hydroxymethyl)tetrahydro-2H-pyran-3,4-diol]	–	–	IC50 [1]: 0.01 µM; IC50 [2]: 0.734 µM
